The target in this assay is mGluR5 receptor (Sus scrofa, UniProt I3LUI7). Nature of the assay: Affinity for the mGluR5 receptor: inhibition of 3[H]-MPEP binding in pig brain homogenate. The following applies: for IC50: 3[H]-MPEP binding; for inhibition at 10 µM: 10 μM compound, 5 nM 3[H]-MPEP, read-out: mGluR5 receptor inhibition of ^3[H]-MPEP binding [10 μM] in % at a concentration of the example compounds of 10 μM. On the procedure:
1. Method for Determining Affinity for the mGluR5 Receptor
Pig brain homogenate is produced by homogenisation (Polytron Pt 3000, Kinematica AG, 10,000 revolutions per minute for 90 seconds) of pig brain hemispheres without medulla, cerebellum and pons in a buffer of pH 8.0 (30 mM Hepes, Sigma, order number H3375+1 tablet Complete Roche Diagnostics, order number 1836145 made up to 100 ml) in a ratio of 1:20 (brain weight/volume) and differential centrifugation at 900×g and 40,000×g. 450 μg of protein from brain homogenate is incubated in each case in 250 μl incubation batches in 96-well microtitre plates with 5 nM 3[H]-MPEP (Tocris, order number R1212) (MPEP=2-methyl-6-[…]) and the compounds to be investigated (10 μM in the test) in the buffer (as above) at room temperature for 60 minutes.
The batches are then filtered with the assistance of a Brandel Cell Harvester (Brandel, Grade Robotic 9600) on Unifilter plates with glass filter mats (Perkin Elmer, order number 6005177) and then washed 3 times with buffer (as above) using 250 μl per sample. The filter plates are then dried for 60 minutes at 55° C. Then 30 μl of Ultima Gold™ scintillating material (Packard BioScience, order number 6013159) is added per well and after 3 hours the samples are measured using the β counter (Microbeta, Perkin Elmer). Nonspecific binding is determined by the addition of 10 μM MPEP (Tocris, order number 1212).

Structures can show the parent of a compound that is named as a salt.

Chain of mGluR5 receptor (I3LUI7 19-1212): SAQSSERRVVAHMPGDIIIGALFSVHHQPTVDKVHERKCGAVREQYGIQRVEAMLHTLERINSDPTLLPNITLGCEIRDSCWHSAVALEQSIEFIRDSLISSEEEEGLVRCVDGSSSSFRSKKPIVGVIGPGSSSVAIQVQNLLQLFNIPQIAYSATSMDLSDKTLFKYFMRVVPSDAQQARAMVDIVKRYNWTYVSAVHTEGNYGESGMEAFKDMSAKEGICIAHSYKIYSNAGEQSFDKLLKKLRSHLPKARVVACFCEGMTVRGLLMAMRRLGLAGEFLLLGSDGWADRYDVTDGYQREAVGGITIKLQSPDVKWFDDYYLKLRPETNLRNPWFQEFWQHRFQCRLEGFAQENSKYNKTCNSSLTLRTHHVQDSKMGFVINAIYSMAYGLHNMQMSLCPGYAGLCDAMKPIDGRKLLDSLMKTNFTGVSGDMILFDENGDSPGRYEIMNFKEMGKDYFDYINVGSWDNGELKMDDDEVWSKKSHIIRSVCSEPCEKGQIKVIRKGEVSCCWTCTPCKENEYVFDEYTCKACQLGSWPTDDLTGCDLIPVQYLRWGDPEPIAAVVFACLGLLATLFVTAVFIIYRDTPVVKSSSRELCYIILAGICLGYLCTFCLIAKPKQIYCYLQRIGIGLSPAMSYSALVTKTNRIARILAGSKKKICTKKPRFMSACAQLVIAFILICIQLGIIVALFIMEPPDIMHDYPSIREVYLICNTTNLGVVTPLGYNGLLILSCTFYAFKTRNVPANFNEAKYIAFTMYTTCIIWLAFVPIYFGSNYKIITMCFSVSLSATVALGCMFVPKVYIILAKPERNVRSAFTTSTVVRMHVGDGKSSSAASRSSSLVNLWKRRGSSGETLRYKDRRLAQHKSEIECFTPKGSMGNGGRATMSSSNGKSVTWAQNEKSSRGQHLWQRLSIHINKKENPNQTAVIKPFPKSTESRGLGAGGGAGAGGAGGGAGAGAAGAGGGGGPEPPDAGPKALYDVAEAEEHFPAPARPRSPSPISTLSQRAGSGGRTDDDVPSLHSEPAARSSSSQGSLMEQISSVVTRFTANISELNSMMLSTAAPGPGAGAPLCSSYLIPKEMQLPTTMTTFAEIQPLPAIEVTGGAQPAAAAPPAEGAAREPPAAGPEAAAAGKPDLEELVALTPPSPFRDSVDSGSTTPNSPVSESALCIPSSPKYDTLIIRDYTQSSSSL

In general, IC50 refers to the concentration that inhibits the measured activity by half. Read a high IC50 as lower potency. `CC(C)(C)CC(C)(C)Nc1c(-c2ccc(C#Cc3ccccc3)s2)nc2ccccn12` [Example 59, [2-(5-phenylethynyl-thiophen-2-yl)-imidazo[1,2-a]pyridin-3-yl]-(1,1,3,3-tetramethyl-butyl)-amine] showed an IC50 of 2070 nM. On the same count and under the same terms, the result for `CC(C)(C)CC(C)(C)Nc1c(-c2ccc(C#Cc3cccnc3)s2)nc2cnccn12` [Example 60, [2-(5-Pyridin-3-ylethynyl-thiophen-2-yl)-imidazo[1,2-a]pyrazin-3-yl]-(1,1,3,3-tetramethyl-butyl)-amine] reads 1200 nM; that for `CC(C)(C)CC(C)(C)Nc1c(-c2ccc(C#Cc3ccncc3)s2)nc2cnccn12` [Example 61, [2-(5-pyridin-4-ylethynyl-thiophen-2-yl)-imidazo[1,2-a]pyrazin-3-yl]-(1,1,3,3-tetramethyl-butyl)-amine], 42.5 nM.

As for `CC(C)(C)CC(C)(C)Nc1c(-c2ccc(C#Cc3ccccc3)s2)nc2ccc(Cl)cn12` [Example 62, [6-chloro-2-(5-phenylethynyl-thiophen-2-yl)-imidazo[1,2-a]pyridin-3-yl]-(1,1,3,3-tetramethyl-butyl)-amine], the inhibition at 10 µM was determined as 26%. `CC(C)(C)CC(C)(C)Nc1c(-c2ccc(C#Cc3ccccc3)s2)nc2c(Cl)cc(Cl)cn12` [Example 63, [6,8-dichloro-2-(5-phenylethynyl-thiophen-2-yl)-imidazo[1,2-a]pyridin-3-yl]-(1,1,3,3-tetramethyl-butyl)-amine]: the inhibition at 10 µM was 65%. Take `CC(C)(C)CC(C)(C)Nc1c(-c2ccc(C#Cc3ccccn3)s2)nc2cnccn12` [Example 64, [2-(5-pyridin-2-ylethynyl-thiophen-2-yl)-imidazo[1,2-a]pyrazin-3-yl]-(1,1,3,3-tetramethyl-butyl)-amine]: the IC50 amounted to 33 nM. On the same count and under the same terms, the result for `CN(C)c1c(-c2ccc(C#Cc3ccccc3)s2)nc2cnccn12` [Example 65, dimethyl-[2-(5-phenylethynyl-thiophen-2-yl)-imidazo[1,2-a]pyrazin-3-yl]-amine] reads 3840 nM; that for `CNc1c(-c2ccc(C#Cc3ccccc3)s2)nc2cnccn12` [Example 66, methyl-[2-(5-phenylethynyl-thiophen-2-yl)-imidazo[1,2-a]pyrazin-3-yl]-amine], 3170 nM. For `CC(=O)Nc1c(-c2ccc(C#Cc3ccccc3)s2)nc2cnccn12` [Example 67, N-[2-(5-phenylethynyl-thiophen-2-yl)-imidazo[1,2-a]pyrazin-3-yl]-acetamide], the IC50 stood at 3840 nM. Same read-out and setting: then `CCNc1c(-c2ccc(C#Cc3ccccc3)s2)nc2cnccn12` [Example 68, ethyl-[2-(5-phenylethynyl-thiophen-2-yl)-imidazo[1,2-a]pyrazin-3-yl]-amine], with 2320 nM; and `CCCNc1c(-c2ccc(C#Cc3ccccc3)s2)nc2cnccn12` [Example 69, propyl-[2-(5-phenylethynyl-thiophen-2-yl)-imidazo[1,2-a]pyrazin-3-yl]-amine], with 2930 nM. On the same count and under the same terms, the result for `CCCCNc1c(-c2ccc(C#Cc3ccccc3)s2)nc2cnccn12` [Example 70, butyl-[2-(5-phenylethynyl-thiophen-2-yl)-imidazo[1,2-a]pyrazin-3-yl]-amine] reads 1060 nM. `CC(C)CNc1c(-c2ccc(C#Cc3ccccc3)s2)nc2cnccn12` [Example 71, (2-methylpropyl)-[2-(5-phenylethynyl-thiophen-2-yl)-imidazo[1,2-a]pyrazin-3-yl]-amine] registered an IC50 of 1270 nM. The same measure, in the same setting: the result for `CCCCCNc1c(-c2ccc(C#Cc3ccccc3)s2)nc2cnccn12` [Example 72, pentyl-[2-(5-phenylethynyl-thiophen-2-yl)-imidazo[1,2-a]pyrazin-3-yl]-amine] reads 5340 nM; that for `COC(=O)CN(CC(=O)OC)c1c(-c2ccc(C#Cc3ccccc3)s2)nc2cnccn12` [Example 73, {(methoxycarbonylmethyl)-[2-(5-phenylethynyl-thiophen-2-yl)-imidazo[1,2-a]pyrazin-3-yl]-amino}-acetic acid methyl ester], 2210 nM; that for `C(#Cc1ccc(-c2nc3cnccn3c2NCc2ccccc2)s1)c1ccccc1` [Example 74, benzyl-[2-(5-phenylethynyl-thiophen-2-yl)-imidazo[1,2-a]pyrazin-3-yl]-amine], 1100 nM. `COC(=O)CNc1c(-c2ccc(C#Cc3ccccc3)s2)nc2cnccn12` [Example 75, [2-(5-phenylethynyl-thiophen-2-yl)-imidazo[1,2-a]pyrazin-3-ylamino]-acetic acid methyl ester]: the IC50 came to 1290 nM. Still for that read-out and setting: then `CC(C)(C)Nc1c(-c2ccc(C#Cc3ccncc3)s2)nc2cnccn12` [Example 76, tert-butyl-[2-(5-pyridin-4-ylethynyl-thiophen-2-yl)-imidazo[1,2-a]pyrazin-3-yl]-amine], with 3.7 nM. Still for that read-out and setting: the result for `CC(C)(C)Nc1c(-c2ccc(C#Cc3ccccn3)s2)nc2cnccn12` [Example 77, tert-butyl-[2-(5-pyridin-2-ylethynyl-thiophen-2-yl)-imidazo[1,2-a]pyrazin-3-yl]-amine] reads 5.7 nM. As to `C(#Cc1ccc(-c2nc3cnccn3c2N(Cc2cccnc2)Cc2cccnc2)s1)c1ccccc1` [Example 79, [2-(5-phenylethynyl-thiophen-2-yl)-imidazo[1,2-a]pyrazin-3-yl]-bis-pyridin-3-ylmethyl-amine], the inhibition at 10 µM was found to be 35%. With `CC(C)(C)Nc1c(-c2ccc(C#Cc3cccnc3)s2)nc2cnccn12` [Example 82, tert-butyl-[2-(5-pyridin-3-ylethynyl-thiophen-2-yl)-imidazo[1,2-a]pyrazin-3-yl]-amine], the half-maximal inhibitory concentration (IC50) stood at 200 nM. For `Nc1c(-c2ccc(C#Cc3ccccc3)s2)nc2cnccn12` [Example 83, 2-(5-phenylethynyl-thiophen-2-yl)-imidazo[1,2-a]pyrazin-3-ylamine], the inhibition at 10 µM turned out to be 35%. `COC(=O)c1nccn2c(NC(C)(C)CC(C)(C)C)c(-c3ccc(C#Cc4ccccc4)s3)nc12` [Example 84, methyl-2-(5-(phenylethynyl)thiophen-2-yl)-3-(2,4,4-trimethylpentan-2-ylamino)imidazo[1,2-a]pyrazine-8-carboxylate]: the IC50 worked out at 1320 nM. The compound `CC(C)(C)CC(C)(C)Nc1c(-c2ccc(C#Cc3ccccc3)s2)nc2ncccn12` [Example 85, 2-(5-(phenylethynyl)thiophen-2-yl)-N-(2,4,4-trimethylpentan-2-yl)imidazo[1,2-a]pyrimidin-3-amine] came in with an IC50 of 2010 nM. On the same count and under the same terms, the result for `Cc1cccc(C#Cc2ccc(-c3nc4cnccn4c3NC(C)(C)CC(C)(C)C)s2)n1` [Example 86, 2-(5-((6-methylpyridin-2-yl)ethynyl)thiophen-2-yl)-N-(2,4,4-trimethylpentan-2-yl)imidazo[1,2-a]pyrazin-3-amine] reads 320 nM. `C(#Cc1ccc(-c2nc3cnccn3c2NC2CCCCC2)s1)c1ccccc1` [Example 87, N-cyclohexyl-2-(5-(phenylethynyl)thiophen-2-yl)imidazo[1,2-a]pyrazin-3-amine]: the inhibition at 10 µM turned out to be 35%. For `C(#Cc1ccc(-c2nc3cnccn3c2N2CCCCC2)s1)c1ccccc1` [Example 88, 2-(5-(phenylethynyl)thiophen-2-yl)-3-(piperidin-1-yl)imidazo[1,2-a]pyrazine], the IC50 was 1400 nM. The same measure, in the same setting: then `CN(c1c(-c2ccc(C#Cc3ccccc3)s2)nc2cnccn12)C(C)(C)C` [Example 89, N-tert-butyl-N-methyl-2-(5-(phenylethynyl)thiophen-2-yl)imidazo[1,2-a]pyrazin-3-amine], with 45 nM. Take `Cc1cc(Br)c2nc(-c3ccc(C#Cc4ccccn4)s3)c(NC3CCCC3)n2c1` [Example 92, 8-bromo-N-cyclopentyl-6-methyl-2-(5-(pyridin-2-ylethynyl)thiophen-2-yl)imidazo[1,2-a]pyridin-3-amine]: the inhibition at 10 µM turned out to be 82%. Compound `CCN(CC)c1c(-c2ccc(C#Cc3ccccc3)s2)nc2cnccn12` [Example 93, N,N-diethyl-2-(5-(phenylethynyl)thiophen-2-yl)imidazo[1,2-a]pyrazin-3-amine] registered a half-maximal inhibitory concentration (IC50) of 250 nM.

Compound `CC(C)(C)Nc1c(-c2ccc(C#Cc3ccccc3)o2)nc2cnccn12` [Example 95, N-tert-butyl-2-(5-(phenylethynyl)furan-2-yl)imidazo[1,2-a]pyrazin-3-amine] yielded an IC50 of 1740 nM. In the case of `Cc1cc(Br)c2nc(-c3cccc(C#Cc4ccccn4)c3)c(NC(C)(C)C)n2c1` [Example 96, 8-bromo-N-tert-butyl-6-methyl-2-(3-(pyridin-2-ylethynyl)phenyl)imidazo[1,2-a]pyridin-3-amine], the inhibition at 10 µM amounted to 79%.

In turn, `Cc1cccn2c(NC(C)(C)C)c(-c3ccc(C#Cc4ccccc4)s3)nc12` [Example 97, N-tert-butyl-8-methyl-2-(5-(phenylethynyl)thiophen-2-yl)imidazo[1,2-a]pyridin-3-amine] showed an IC50 of 590 nM. The same measure, in the same setting: then `CN(c1c(-c2ccc(C#Cc3ccccc3)s2)nc2cnccn12)C(C)(C)CC(C)(C)C` [Example 98, N-methyl-2-(5-(phenylethynyl)thiophen-2-yl)-N-(2,4,4-trimethylpentan-2-yl)imidazo[1,2-a]pyrazin-3-amine hydrochloride], with 250 nM.
